Experimental findings from US20220249596A1, “PIC1 PEPTIDE COMPOSITIONS AND METHODS OF USE THEREOF FOR TREATMENT OF HYPOXIC ISCHEMIC ENCEPHALOPATHY” (REALTA HOLDINGS, LLC, priority 2019, published 2022) are described below.

Assay [1] is described as follows: Beam walk assay, fine motor coordination and balance. The settings on record: versus NT animals. It counts as in vivo, rat. As for the experimental part: Fine motor coordination and balance was assessed by a beam walk assay, which was performed as follows. Gross motor function and balance was evaluated using the beam walking test 6 weeks after HIE. Beams of varying widths (19 mm, 13 mm, or 6 mm) were used that led to a dark escape box. Each beam was 90 cm long and elevated 60 cm from the ground. The goal of this test is for the rat to stay upright and walk across elevated narrow beams of decreasing width (0.75 and 0.25 inches, or 19 mm and 6 mm) to a safe platform.
Rats were placed on a loading platform on the proximal end of the apparatus, and instinctively walked towards the box when placed on a beam. Rats were trained on each beam prior to the test. On the test day, rats were placed on the loading platform, and videos were recorded. Rats were given up to 5 attempts to cross each beam. Failures, i.e., inability to cross along with right and left foot slips, were analyzed by an investigator blinded to the treatment

In assay [2] the test system is C3a. In words: Systemic C3a level in plasma, ELISA. It counts as in vivo, rat. The settings on record: 8, 12 and 24 hours after initial insult, P<0.05. The protocol:
Systemic C1q and C5a levels were measured as follows. 100 μl of 1:5 plasma in 1×PBS was added to the wells of a plate described above and incubated overnight at 4° C. The plates were washed 3 times with PBST and blocked with NDS or NGS for one hour. Samples were probed with either 1:50 goat anti-human C1q (Complement Technology) in NDS or 1:200 mouse anti-human C5a (Human Complement Component C5a DuoSet ELISA, R&D Systems, Inc., Minneapolis, Minn.) in NGS for one hour at RT. The wells were washed and 1:500 donkey anti-goat 488 (Life Technologies) in NDS or 1:500 goat anti-mouse AF 568 (Life Technologies) in NGS was added, and incubated for one hour at RT. The wells were washed and the plate read using a Synergy HT (BioTek). Systemic C3a levels in plasma (1:20 dilution) were measured using a standard ELISA, according to the manufacturer's instructions (Rat C3a ELISA Kit, TSZ ELISA, Waltham, Mass.).
On the technique in general: An ELISA detects its analyte on a solid surface through an enzyme-linked reagent.

The test system of assay [3] is C3aR. In words: Whole brain C3aR expression, Western blotting and immunofluorescence. It counts as in vivo, rat. To be noted: PIC1 group versus NT animals, P<0.05. The protocol: After blocking for one hour at room temperature, tissues were incubated with 1:300 goat anti-Iba1 (Abcam), 1:250 goat anti-GFAP (Abcam), 1:500 chicken anti-NeuN (Millipore, Billerica, Mass.), or 1:100 mouse anti-NeuN (Millipore) in host appropriate blocking serum overnight at 4° C. Primary antibodies were probed with 1:500 donkey anti-goat (Abcam), goat anti-chicken (Abcam), or goat anti-mouse (Abcam) AF 488 or 568 in appropriate blocking serum for one hour at room temperature. Tissues were blocked a second time with NGS for one hour at room temperature. Samples were then probed with 1:300 mouse anti-C1q (Abcam), 1:300 rabbit anti-C9, 1:50 rabbit anti-MPO (Abcam), 1:200 rabbit anti-TMEM (Novus Bio, Centennial, Colo.), 1:100 rabbit anti-C3aR (Bioss), 1:100 Mouse anti-C5aR (Hycult), or 1:200 chicken anti-C3/C3a (Abcam) in NGS overnight at 4° C. and then with 1:500 goat anti-mouse, rabbit, or chicken (Abcam) AF 488 or 568 in NGS for one hour at room temperature.
Without wishing to be bound by theory, C3a is generated at the convergence of all known complement activation pathways (i.e., the classical, alternate and lectin pathways). To investigate further, C3aR levels in the brain were measured by Western blotting and immunofluorescence (FIG. 5). Western blotting was performed as follows. […]
In general terms: Immunoblotting shows a protein as a band on a membrane.

The subject of assay [4] is C1q. In words: Immunofluorescence quantification of C1q in brain. It counts as in vivo, rat. The settings on record: ipsilateral cortex and hippocampus, 48 hours, versus NT and HT, P<0.05. The protocol:
TUNEL/C1q staining was performed as follows. Five (5) μm paraffin-embedded coronal brain sections on slides were incubated (1 hour; 60° C.), deparaffinized with xylene, and rehydrated with ethanol (100%, 95%, 70%; RT). Endogenous peroxidase activity was blocked (0.3% H2O2/MeOH; 10 minutes; RT), and heat induced antigen retrieval was performed (when indicated) using 10 mM sodium citrate, pH 6.0. 10% normal serum (from the same species as the host of the secondary antibody) was used to block and to dilute antibodies. Samples were washed twice for 10 min each, in PBST between each step.
After blocking for one hour at room temperature, tissues were incubated with 1:300 goat anti-Iba1 (Abcam), 1:250 goat anti-GFAP (Abcam), 1:500 chicken anti-NeuN (Millipore, Billerica, Mass.), or 1:100 mouse anti-NeuN (Millipore) in host appropriate blocking serum overnight at 4° C. Primary antibodies were probed with 1:500 donkey anti-goat (Abcam), goat anti-chicken (Abcam), or goat anti-mouse (Abcam) AF 488 or 568 in appropriate blocking serum for one hour at room temperature. Tissues were blocked a second time with NGS for one hour at room temperature. […]

Assay [5] relates to brain infarct after HIE. To be noted: rat, in vivo, ip, 160 mg/kg.

No end group written: not given here.

On to “IALILEPICCQERAA-dPEG24 (cysteine pairing not given here) [PIC1]”, for which the beam walk performance entry in assay [1] (0.25 inch beam) and in assay [1] (0.75 inch beam) was “performed significantly better” each time. In assay [2], the “C3a levels in plasma, NT animals relative to PIC1-treated animals” value was “significantly higher”. The “whole brain C3aR expression” value in assay [3] was “significantly higher”. Moreover, the C1q expression result in assay [4] was “significant reduction”. Also, in assay [5], the “decrease in brain infarct size” value is given as 68%.
